Experiments:
Escherichia coli W 3636 = assay: Antibacterial activity, agar plate dilution method: E. coli W 3636; type: cell-based; details: Mueller-Hinton agar, 10^6 cells/ml, 37° C., 18 to 24 hours
Procedure: (§1) Antibacterial activity of the present compound was examined by agar plate dilution method while following the standard method of Japan Society of Chemotherapy and using the following strain:
(§2) 3. Escherichia coli W 3636
(§3) Namely, after inoculating each bacteria on Mueller-Hinton culture medium, the inoculum was incubated for 18 to 48 hours at 37° C. and after adjusting the number of cells of each bacteria so as to contain 10^6 in one ml, the thus prepared specimen was used as the test bacterial liquid.
(§4) Each of the present substances (the substance in Example 1 and the substance in Example 2) was dispersed in aqueous physiological saline solution at a predetermined concentration and the thus prepared dispersion was added to 9 times by volume of the culture medium for examining sensitivity (Mueller-Hinton culture medium) to prepare agar plates.
(§5) On each agar plate, each of the test bacterial liquid was smeared at a width of about 2 cm, and the thus smeared agar plate was incubated for 18 to 24 hours at 37° C.

[1] = test system: Staphylcoccus aureus IAM 1011; assay: Activation by rat liver homogenate (S-9 mix), penicillin cup proliferation-inhibiting circle; type: cell-based, Staphylococcus aureus; details: 20 min at 37° C., inhibiting circle diameter as % of that of the starting compound; for Degree of activation, Before adding S-9 mix: phosphoric acid buffer control; for Degree of activation, After adding S-9 mix: rat liver S-9 mix
Procedure: As an enzyme for activating metabolism of the present compound, rat liver homogenate (S-9, manufactured by Oriental Yeast Co., Ltd.) was used in preparing the following mixture (hereinafter referred to as S-9 mix).
Composition of S-9 mix (amount in one ml of S-9 mix)
A test solution of present compound was prepared by mixing 0.1 ml of a dispersion of the present compound and 0.9 ml of the thus prepared S-9 mix and shaking the thus prepared mixture for 20 min at 37° C. As a control, a mixture was prepared by mixing 0.1 ml of the dispersion of the present compound and 0.9 ml of the 0.2M phosphoric acid buffer and shaking the mixture for 20 min at 37° C.
As the test bacteria, Staphylcoccus aureus IAM 1011 was inoculated in Mueller-Hinton culture medium and after incubating the inoculum for 18 hours at 37° C., the number of the bacteria was adjusted to 10^8 /ml and the bacterial preparation was mixed with 50 times by volume of Mueller-Hinton culture medium, and an agar plate was prepared from the mixture.
After placing a penicillin cup of 8 mm in diameter on the thus prepared agar plate, 0.1 ml of the test solution of present compound prepared above was put into the cup, and after leaving the agar plate for 2 hours at 4° C., the agar plate was subjected to culture for 18 hours at 37° C. and the diameter of a proliferation-inhibiting circle appearing on the agar plate was measured.
The same procedures were carried out except for using 7β-[2-(2-amino-4-thiazolyl)-(Z)-2-methoxyiminoacetamido]-3-[(2-methyl-1,3,4-thiadiazol-5-yl)thiomethyl]-3-cephem-4-carboxylic acid used as a starting compound for producing the present compound in Example 1 instead of the present compound.
The percentage of the diameter of a proliferation-inhibiting circle due to the present compound to that due to the starting compound mentioned above was obtained, and from the following standards, the degree of activation was obtained.

[2] = test system: bacteria (strains of Table 3); assay: Antibacterial activity, agar plate dilution method, overall; type: cell-based; details: as seen from Table 3
Procedure: as §1
2. Staphylococcus aureus IAM 1011
as §2
4. Proteus vulgaris IAM 1025
5. Pseudomonas aeruginosa IAM 1514
6. Serratia marcescens IAM 1223
as §3, §4, §5

Escherichia coli = assay: Effect on the intestinal bacterial colonies: E. coli in feces; type: in vivo, Escherichia coli (feces of female ICR-JCL mice); details: after administration; 100 mg/kg orally once a day, 2 days; before administration 6.4
Procedure: (§6) Effect of the present compound on the intestinal bacterial colonies was examined as follows.
(§7) The present compound prepared in Example 2 was orally administered to each of 5 animals of a group of female ICR-JCL mice of 6-weeks-old at a daily dosage of 100 mg/kg once a day for continuous 2 days. Feces of each of the mice were collected before and after one day of the administration, and after diluting thereof with 100 times by weight of an anaerobic diluent (an aqueous phosphoric acid buffer) the thus diluted feces were ground, and 0.1 ml of the thus ground and diluted feces was smeared on each culture medium for each bacterial species (shown in Table 1).
(§8) After incubating the thus prepared culture media at 25° C. for one to five days aerobically in the cases of Escherichia coli, Pseudomonas aeruginosa and the Streptococcus species or anaerobically in the cases of the Lactobacillus acidophilus, Lactobacillus bifidus and the Bacterioides species, the number of each bacteria proliferating on the culture medium was counted.
DHL aerobic, 37° C., one day

Pseudomonas aeruginosa = assay: Effect on the intestinal bacterial colonies: P. aeruginosa in feces; type: in vivo, Pseudomonas aeruginosa (feces of female ICR-JCL mice); details: after administration; 100 mg/kg orally once a day, 2 days; before administration <3.0
Procedure: as §6, §7, §8
(2) Pseudomonas aeruginosa

[3] = test system: Lactobacillus acidophilus; assay: Effect on the intestinal bacterial colonies: L. acidophilus in feces; type: in vivo, Lactobacillus acidophilus (feces of female ICR-JCL mice); details: after administration; 100 mg/kg orally once a day, 2 days; before administration 9.0
Procedure: as §6, §7, §8
(4) Lactobacillus acidophilus
LBS anaerobic, 37° C., 5 days

Lactobacillus bifidus = assay: Effect on the intestinal bacterial colonies: L. bifidus in feces; type: in vivo, Lactobacillus bifidus (feces of female ICR-JCL mice); details: after administration; 100 mg/kg orally once a day, 2 days; before administration 8.5
Procedure: as §6, §7, §8
(5) Lactobacillus bifidus

Bacteroides sp. = assay: Effect on the intestinal bacterial colonies: Bacteroides sp. in feces; type: in vivo, Bacteroides sp. (feces of female ICR-JCL mice); details: after administration; 100 mg/kg orally once a day, 2 days; before administration 8.3
Procedure: as §6, §7, §8

Row | Structure (SMILES) | minimal inhibitory concentration (MIC), E. coli W 3636 (Escherichia coli W 3636) | Degree of activation, Before adding S-9 mix [1] | Degree of activation, After adding S-9 mix [1] | antibacterial activity (in words) [2] | Logarithmic value of the number of bacterial cells per one gram of feces, (1) E. coli (Escherichia coli) | Logarithmic value of the number of bacterial cells per one gram of feces, (2) P. aeruginosa (Pseudomonas aeruginosa) | Logarithmic value of the number of bacterial cells per one gram of feces, (4) L. acidophilus [3] | Logarithmic value of the number of bacterial cells per one gram of feces, (5) L. bifidus (Lactobacillus bifidus) | Logarithmic value of the number of bacterial cells per one gram of feces, (6) Bacteroides sp. (Bacteroides sp.)
1 | CO/N=C(\C(=O)N[C@@H]1C(=O)N2C(C(=O)O)=C(CSc3nnc(C)s3)CS[C@H]12)c1csc(NC(=O)C(Cl)Cl)n1 [Example 1, 7β-[2-(2-dichloroacetamido-4-thiazolyl)-(Z)-2-methoxyiminoacetamido]-3-[(2-methyl-1,3,4-thiadiazol-5-yl)thiomethyl]-3-cephem-4-carboxylic acid] | 0.4 | ++++ (100 to 150%) | ++++ (100 to 150%) | shows an antibacterial activity | – | – | – | – | –
2 | CO/N=C(\C(=O)N[C@@H]1C(=O)N2C(C(=O)OCOC(=O)C(C)(C)C)=C(CSc3nnc(C)s3)CS[C@H]12)c1csc(NC(=O)C(Cl)Cl)n1 [Example 2] | ≥ 100 | ± (0 to 1%) | ++++ (100 to 150%) | shows a low antibacterial activity | 6.4 Logarithmic value of the number of bacterial cells per one gram of feces | < 3.0 Logarithmic value of the number of bacterial cells per one gram of feces | 8.9 Logarithmic value of the number of bacterial cells per one gram of feces | 8.5 Logarithmic value of the number of bacterial cells per one gram of feces | 8.2 Logarithmic value of the number of bacterial cells per one gram of feces
